Results on 2 compounds are retold here after patent US11826373B2, “Methods for treatment of diseases” (Galera Labs, LLC, priority 2011, dated 2023).

Where two headings read alike, the source gives them in different places.

One data set in a line: Solubility (Table 1). It is filed as physicochemical.
Data set [1] in a line: Catalytic rate constant for the dismutation of superoxide. It is filed as biochemical. Conditions: pH = 7.4.
Data set [2] is described as follows: Kinetic stability (dissociation of Mn(II) from ligand). It is filed as physicochemical. Conditions: second-order rate constant for dissociation of Mn(II) from the ligand, in water.
The next data set concerns HEK-293 cells. Kind of data set: Anti-proliferative activity in vitro. It is filed as cell-based. Conditions: 72 hour incubation, LDH assay. Here is the method: Materials and Methods: HEK-293 (CRL-1573) cells were obtained from ATCC and cultured according to ATCC instructions. Complete growth medium consisted of RPMI 1640 supplemented to 10% with fetal bovine serum (FBS). All cell incubations were at 37° C. in 95% air: 5% CO2. Two days before the start of a proliferation experiment, 10^3 HEK-293 cells in exponential growth phase were plated into each well of a 96-well plate. To synchronize cell division, the cells were maintained in complete growth medium for 24 hours at which time the cell monolayers were rinsed once with growth medium without FBS and then incubated overnight in media without FBS. The next morning GC4419 or GC4403 in complete growth medium or complete growth medium alone was added. The plates were incubated for 72 hour, after which time cell numbers were determined using an LDH assay kit. “Cell number” on FIG. 3 represents absorbance at 490 nm.

In a further data set the test system is TNF-α. Kind of data set: Plasma TNF-α in the collagen induced arthritis model. The data set is classed as in vivo, Male Lewis rats. Here is the method:
Male Lewis rats (160-180 g) were used for this study. Collagen induced arthritis (CIA) was induced as follows: Bovine type II collagen (CII; Sigma) was dissolved in 0.1 M acetic acid at 2 mg/mL by stirring overnight at 4 C. Rats were immunized with an emulsion of 2 mg/mL CII in incomplete Freund's adjuvant (IFA; Sigma). The emulsion was prepared by homogenizing one part CII into one part IFA at 4 C. On day 1, rats were injected intradermally at the base of the tail with 100 μL of the emulsion. On day 21, a second injection of CII in IFA was administered at the base of the tail. GC4403 and GC4419 were prepared fresh, dissolved in 26 mM sodium bicarbonate buffered saline (Vehicle). All drugs were given by intraperitoneal injection at 1 mL/kg. Animals were randomly divided into groups (n=10 per group). GC4403 and GC4419 were administered once daily at 2, 5 and 10 mg/kg from days 25 through 35.
TNF-α levels were measured from plasma on day 35. The assay was conducted using a colorimetric ELISA kit (Calbiochem-Novabiochem) having a detection limit of 5 pg/mL. Values were expressed as mean±standard error of the mean of 10 observations. Data sets were examined by one-way ANOVA followed by a Bonferroni post-hoc test for multiple comparisons. A p-value of less than 0.05 was considered significant.

Where [3] appears, read: 26 mM bicarbonate buffered saline, aqueous buffer, at 25° C., pH 8.3, read-out: Solubility in 26 mM bicarbonate buffered saline.
[4] abbreviates: 2 mg/kg ip once daily days 25 through 35, measured day 35.
[5] abbreviates: 5 mg/kg ip once daily days 25 through 35, measured day 35.
Setting [6] is: 10 mg/kg ip once daily days 25 through 35, measured day 35.

One may read the solubility as the concentration that dissolves in the medium under given conditions. Turning to `[Cl][Mn-5]1234([Cl])[n+]5c6cccc5C[NH+]1[C@@H]1CCCC[C@H]1[NH+]2CC[NH+]3[C@@H]1CCCC[C@H]1[NH+]4C6` (stereo partly shown) [GC4403], the solubility in “Solubility (Table 1)” (setting [3]) was determined as 20 mg/mL; in the data set “Solubility (Table 1)” (distilled water, water), 30 mg/mL. Besides, in data set [1], the “Catalytic rate constant for the dismutation for superoxide (kcat)” value is “kcat = 1.2 × 10^+7 M^−1 sec^−1”. Besides, the “Kinetic Stability (kdiss)” value in data set [2] was “kdiss = 0.135 M^−1 s^−1”. For the same compound, in the data set on HEK-293 cells, the “proliferation of HEK-293 cells” value was “equivalent dose-dependent decrease”. In addition, the figures for the “plasma TNF-α production” value with TNF-α (setting [4]), with TNF-α (setting [5]) and with TNF-α (setting [6]) were “did not significantly reduce”, “significantly reduced” and “significantly reduced”, respectively.

As to `[Cl][Mn-5]1234([Cl])[n+]5c6cccc5C[NH+]1[C@H]1CCCC[C@@H]1[NH+]2CC[NH+]3[C@H]1CCCC[C@@H]1[NH+]4C6` (stereo partly shown) [GC4419], the solubility was 20 mg/mL in the data set “Solubility (Table 1)” (setting [3]) and 30 mg/mL in the data set “Solubility (Table 1)” (distilled water, water). The “Catalytic rate constant for the dismutation for superoxide (kcat)” value in data set [1] was “kcat = 1.2 × 10^+7 M^−1 sec^−1”. In data set [2], the “Kinetic Stability (kdiss)” value is on record as “kdiss = 0.135 M^−1 s^−1”. Also, in the data set with HEK-293 cells, the “proliferation of HEK-293 cells” value is on record as “equivalent dose-dependent decrease”. For the same compound, the “plasma TNF-α production” value in the data set on TNF-α (setting [4]) was “did not significantly reduce”; in the data set on TNF-α (setting [5]) it was “significantly reduced”; with TNF-α (setting [6]), “significantly reduced”.
